Results published in patent US20180057505A1, “BICYCLIC HETEROARYL COMPOUNDS USEFUL AS INHIBITORS OF THE PAR-2 SIGNALING PATHWAY” (VERTEX PHARMACEUTICALS INCORPORATED, priority 2015, published 2018).

Tests used:
Type in all cases: cell-based
PAR2 (HT-29 cells) [1] = biological target: T1, PAR2 (HT-29 cells) (Homo sapiens, UniProt P55085); experiment: Ca FLIPR TETRA assay, ANTAGONIST mode, activator 8 μM SLIGKV; details: HT-29 cells, activator 8 μM SLIGKV; maximal antagonist concentration per Method (A: 0.1, 1 or 2 μM; B: 50 μM)
T1 construct: host or cells: HT-29
T1 sequence (P55085 26-397): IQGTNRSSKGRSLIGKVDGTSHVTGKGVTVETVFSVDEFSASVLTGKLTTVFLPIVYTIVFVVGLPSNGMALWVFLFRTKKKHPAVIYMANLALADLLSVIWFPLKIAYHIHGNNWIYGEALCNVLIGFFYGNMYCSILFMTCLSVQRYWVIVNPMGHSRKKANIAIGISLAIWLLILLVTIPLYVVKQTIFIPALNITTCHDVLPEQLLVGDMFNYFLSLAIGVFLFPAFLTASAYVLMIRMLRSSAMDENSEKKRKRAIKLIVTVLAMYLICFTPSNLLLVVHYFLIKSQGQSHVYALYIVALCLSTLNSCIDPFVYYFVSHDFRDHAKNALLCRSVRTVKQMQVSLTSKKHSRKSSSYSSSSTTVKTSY
Summary of the method: (§1)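 Fluorescent Ca2+ dye (calcium 5) loading of overnight-plated HT-29 cells preceded compound addition and a 30 min room-temperature incubation. Responses to the specified activator concentration were then read by FLIPR Tetra in the same plate.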

PAR2 (HT-29 cells) [2] = biological target: T1, PAR2 (HT-29 cells); experiment: Ca FLIPR TETRA assay, ANTAGONIST mode, activator 3.1 U/mL trypsin; details: for IC50: HT-29 cells, activator 3.1 U/mL trypsin, maximal antagonist concentration per Method (A: 0.1, 1 or 2 μM; B: 50 μM)
Summary of the method: as §1

[3] = test system: Thrombin-stimulated Ca2+ response in HT-29 cells; experiment: Ca FLIPR TETRA assay, ANTAGONIST mode, activator 1 U/mL Thrombin; details: Homo sapiens; HT-29 cells, activator 1 U/mL Thrombin
Summary of the method: as §1

[4] = test system: UTP-stimulated Ca2+ response in HT-29 cells; experiment: Ca FLIPR TETRA assay, ANTAGONIST mode, activator 0.6 μM UTP; details: Homo sapiens; for IC50: HT-29 cells, activator 0.6 μM UTP
Summary of the method: as §1

| SMILES | IC50 (PAR2 (HT-29 cells) [1]) [nM] | IC50 (PAR2 (HT-29 cells) [2]) [nM] | IC50 [3] [nM] | IC50 [4] [nM] | inhibition at 50 µM ([4]; HT-29, @ 50 (μM)) [%] | Trypsin, % @ 50 (PAR2 (HT-29 cells) [2]; @ 50 (μM)) [% @ 50] |
| --- | --- | --- | --- | --- | --- | --- |
| CCCS(=O)(=O)N1CCN(C(=O)c2cc3nc(-c4ccc(F)cc4)cc(C4(C)CC4)c3o2)C(C)(C)C1 [Example I-107] | 34 | 28 | > 50000 | > 50000 | – | – |
| CCOC(=O)N1CCN(C(=O)c2cc3nc(-c4ccc(F)cc4)cc(C4(C)CC4)c3o2)C(C)(C)C1 [Example I-108] | 2.2 | 1.8 | > 50000 | > 50000 | – | – |
| C[C@H]1CN(C(=O)c2cc3nc(-c4ccc(F)cc4)cc(C4(C)CC4)c3o2)CCN1C(=O)C(C)(C)O [Example I-109] | 2300 | 3400 | 12000 | 11000 | – | – |
| CC[C@@H](O)C(=O)N1CCN(C(=O)c2cc3nc(-c4ccc(F)cc4)cc(C4(C)CC4)c3o2)C[C@@H]1C [Example I-110] | 40 | 64 | 18000 | 14000 | – | – |
| C[C@H]1CN(C(=O)c2cc3nc(-c4ccc(F)cc4)cc(C4(C)CC4)c3o2)CCN1C(=O)C(O)C1CC1 (stereo partly shown) [Example I-111] | 56.5 | 41 | 19000 | 12000 | – | – |
| CC(C)[C@@H](O)C(=O)N1CCN(C(=O)c2cc3nc(-c4ccc(F)cc4)cc(C4(C)CC4)c3o2)C[C@@H]1C [Example I-112] | 13 | 27 | 13000 | 11000 | – | – |
| CC(C)C[C@@H](O)C(=O)N1CCN(C(=O)c2cc3nc(-c4ccc(F)cc4)cc(C4(C)CC4)c3o2)C[C@@H]1C [Example I-113] | 11 | 2 | 17000 | 12000 | – | – |
| C[C@H]1CN(C(=O)c2cc3nc(-c4ccc(F)cc4)cc(C4(C)CC4)c3o2)CCN1C(=O)C(O)c1ccc(F)cc1 (stereo partly shown) [Example I-114] | 2.2 | 2.7 | 27000 | 30000 | – | – |
| C[C@H]1CN(C(=O)c2cc3nc(-c4ccc(F)cc4)cc(C4(C)CC4)c3o2)CCN1C(=O)C1CCC1 [Example I-115] | 46 | 92 | > 50000 | – | 66 | – |
| C[C@H]1CN(C(=O)c2cc3nc(-c4ccc(F)cc4)cc(C4(C)CC4)c3o2)CCN1C(=O)C1CC1 [Example I-116] | 350 | 990 | 13000 | 6900 | – | – |
| C[C@H]1CN(C(=O)c2cc3nc(-c4ccc(F)cc4)cc(C4(C)CC4)c3o2)CCN1C(=O)C1(O)CC1 [Example I-117] | 1100 | 2300 | 12000 | 7700 | – | – |
| C[C@H]1CN(C(=O)c2cc3nc(-c4ccc(F)cc4)cc(C4(C)CC4)c3o2)CCN1C(=O)C1(C)CC1 [Example I-118] | 600 | 780 | 9800 | 6100 | – | – |
| C[C@H]1CN(C(=O)c2cc3nc(-c4ccc(F)cc4)cc(C4(C)CC4)c3o2)CCN1C(=O)C1(C#N)CC1 [Example I-119] | 620 | 560 | 1400 | 1600 | – | – |
| C[C@H]1CN(C(=O)c2cc3nc(-c4ccc(F)cc4)cc(C4(C)CC4)c3o2)CCN1C(=O)C1CCOCC1 [Example I-120] | 360 | 1300 | 13000 | 13000 | – | – |
| C[C@H]1CN(C(=O)c2cc3nc(-c4ccc(F)cc4)cc(C4(C)CC4)c3o2)CCN1C(=O)C1(O)CCOCC1 [Example I-121] | 1100 | 1800 | 5500 | 6300 | – | – |
| C[C@H]1CN(C(=O)c2cc3nc(-c4ccc(F)cc4)cc(C4(C)CC4)c3o2)CCN1C(=O)c1ccn[nH]1 [Example I-122] | 1000 | 330 | 1900 | 1600 | – | – |

| SMILES | IC50 (PAR2 (HT-29 cells) [1]) [nM] | IC50 (PAR2 (HT-29 cells) [2]) [nM] | IC50 [3] [nM] | IC50 [4] [nM] | inhibition at 50 µM ([4]; HT-29, @ 50 (μM)) [%] | Trypsin, % @ 50 (PAR2 (HT-29 cells) [2]; @ 50 (μM)) [% @ 50] |
| --- | --- | --- | --- | --- | --- | --- |
| Cc1cc(C(=O)N2CCN(C(=O)c3cc4nc(-c5ccc(F)cc5)cc(C5(C)CC5)c4o3)C[C@@H]2C)n(C)n1 [Example I-123] | 340 | 930 | 4500 | 4100 | – | – |
| CC(C)c1nc(-c2ccc(F)cc2)nc2cc(C(=O)N3CCNC(=O)C3(C)C)oc12 [Example I-124] | 940 | 1900 | 24000 | 23000 | – | – |
| CC(C)c1nc(-c2ccc(F)cc2)nc2cc(C(=O)N3CCN(C(=O)[C@H](O)CC(C)(C)C)[C@@H](C)C3)oc12 [Example I-125] | 260 | 1900 | 32000 | 20000 | – | – |
| CC(C)c1nc(-c2ccc(F)cc2)nc2cc(C(=O)N3CCN(C(=O)[C@H](O)CC(C)(C)C)CC3(C)C)oc12 [Example I-126] | 110 | 67 | 13000 | 22000 | – | – |
| CC1(c2nc(-c3ccc(F)cc3)nc3cc(C(=O)N4CCNC(=O)C4(C)C)oc23)CC1 [Example I-127] | 740 | – | > 50000 | > 50000 | – | 49 |
| C[C@H]1CN(C(=O)c2cc3nc(-c4ccc(F)cc4)nc(C4(C)CC4)c3o2)CCN1C(=O)[C@H](O)CC(C)(C)C [Example I-128] | 540 | 5300 | > 50000 | 44000 | – | – |
| CC(C)(C)C[C@@H](O)C(=O)N1CCN(C(=O)c2cc3nc(-c4ccc(F)cc4)nc(C4(C)CC4)c3o2)C(C)(C)C1 [Example I-129] | 250 | 270 | > 50000 | > 50000 | – | – |
| CC(C)c1cc(-c2ccc(F)cc2)nc2sc(C(=O)N3CCN(C(=O)[C@H](O)CC(C)(C)C)[C@@H](C)C3)nc12 [Example I-130] | 2100 | 2600 | > 35000 | 30000 | – | – |
| CC(C)c1cc(-c2ccc(F)cc2)nc2sc(C(=O)N3CCNC(=O)C3(C)C)nc12 [Example I-131] | 66 | 68 | 19000 | 12000 | – | – |
| CC(C)c1cc(-c2ccc(F)cc2)nc2sc(C(=O)N3CCN(C(=O)[C@H](O)CC(C)(C)C)CC3(C)C)nc12 [Example I-132] | 6.4 | 9 | > 50000 | > 50000 | – | – |
| CC(C)c1cc(-c2ccc(F)cc2)nc2oc(C(=O)N3CCNC(=O)C3(C)C)nc12 [Example I-133] | 5900 | 7500 | 20000 | 20000 | – | – |
| CC(C)c1cc(-c2ccc(F)cc2)nc2cc(C(=O)N3CCN(C(=O)[C@H]4C[C@](O)(C(F)(F)F)C4)CC3(C)C)oc12 [Example I-134] | 0.6 | 0.9 | > 1000 | > 1000 | – | – |
| CC(C)c1cc(-c2ccc(F)cc2)nc2cc(C(=O)N3CCN(C(=O)[C@H]4C[C@@H](O)C4)CC3(C)C)oc12 [Example I-135] | 24 | 42 | > 1000 | > 1000 | – | – |
| CC(C)c1cc(-c2ccc(F)cc2)nc2cc(C(=O)N3CCN(C(=O)[C@H]4C[C@@](C)(O)C4)CC3(C)C)oc12 [Example I-136] | 6.4 | 7.4 | > 1000 | > 1000 | – | – |
| CC(C)c1cc(-c2ccc(F)cc2)nc2cc(C(=O)N3CCN(C(=O)[C@H]4C[C@@](O)(C(F)(F)F)C4)CC3(C)C)oc12 [Example I-137] | 7.8 | 9.4 | 500 | 830 | – | – |
